# Test results taken from article PMC9866339, “In Silico and In Vitro Study of Janus Kinases Inhibitors from Naphthoquinones” (Molecules, 2023).
# Read-outs that look alike come from different tables or passages of the source.
# Assays:
# HEL cells = assay: Presto Blue cytotoxicity assay on HEL cells; format: cell-based, human; conditions: for IC50: Homo sapiens, HEL, 72 h, read-out: IC50 against HEL cell viability; for Cytotoxicity screening on HEL cells: 10 μM, result in words
# Method: (§1) The cytotoxicity activity of naphthoquinones against both TF1 and HEL cells was performed using the Presto Blue assay. The TF1 (50,000 cells/well) and HEL (25,000 cells/well) cell suspensions were seeded in a 96-well microplate and incubated overnight at 37 °C. […] The absorbance of the resorufin product was measured at 570 nm using a microplate reader (Infinite M200 microplate reader, Tecan, Männedorf, Switzerland) after adding 10 μL of Presto Blue reagent in TF1 and HEL cells, which incubated at 37 °C for 1 h. The treatment without compounds/known drugs was used as vehicle control.
# TF1 cells [1] = conditions: at IC50, 72 h, dot plot quadrant
# Method: The cells were then harvested after being centrifuged at 1000 rpm for 5 min. Then, the pellets were resuspended and incubated for 25 min at room temperature in the dark with annexin V and dead cell reagent (MCH100105, Merk, Germany). The apoptosis was assessed by a flow cytometry MUSE (Merck-MiIIipore, Burlington, MA, USA) analyzer. All experiments were independently performed three times.
# human keratinocytes = tested on: human keratinocytes; design: method as in PMID 28250347, PMID 22845014; conditions: result in words; cited from earlier work
# TF1 cells [2] = assay: Presto Blue cytotoxicity assay on TF1 cells; format: cell-based, human; conditions: for Cytotoxicity screening on TF1 cells: 10 μM, Presto Blue assay, result in words; for IC50: Homo sapiens, TF-1, 72 h, read-out: IC50 against TF1 cell viability
# Method: as §1
# JAK3 = molecular target: T1, JAK3 (Homo sapiens, UniProt P52333); assay: ADP-Glo kinase assay, JAK3; format: biochemical; conditions: 5 μM ATP, read-out: IC50 ± SEM JAK3
# T1 construct: purchased Sigma-Aldrich SRP0173
# T1 sequence (P52333 781-1124 limits assumed): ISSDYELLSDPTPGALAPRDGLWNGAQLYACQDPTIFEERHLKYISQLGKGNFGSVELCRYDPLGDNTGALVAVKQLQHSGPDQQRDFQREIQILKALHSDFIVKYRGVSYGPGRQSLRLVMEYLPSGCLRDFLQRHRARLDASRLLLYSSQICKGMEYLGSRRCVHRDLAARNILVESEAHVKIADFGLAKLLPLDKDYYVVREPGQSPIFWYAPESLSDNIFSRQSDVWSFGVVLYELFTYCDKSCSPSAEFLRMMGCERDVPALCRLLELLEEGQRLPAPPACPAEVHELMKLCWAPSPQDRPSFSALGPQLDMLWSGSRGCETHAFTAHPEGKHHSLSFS
# Method: (§2) The tyrosine kinase inhibition of JAK2 and JAK3 was performed using the ADP-Glo™ kinase assay (Promega). The 2.5 ng/μL of enzymes (Sigma-Aldrich), JAK2 (SRP0171), and JAK3 (SRP0173) were mixed with 1 μM of compounds/known drugs, 5 μM ATP and 2 ng/μL poly(glu·tyr), in a buffer (40 mM Tris−HCI pH 7.5, 20 mM MgCl2, and 0.1 mg/mL BSA). The reactions were incubated for 1 h at room temperature. Then, 5 μL of the ADP-Glo reagent was added and incubated for 40 min. Next, 10 μL of kinase detection reagent was added and incubated at room temperature for 30 min to convert ADP to ATP product. The ATP was detected by measuring the luminescence using a microplate reader. The relative inhibition (%) of compounds/known drugs was calculated and compared to the control without compounds/known drugs.
# JAK2 = molecular target: T2, JAK2 (Homo sapiens, UniProt O60674); assay: ADP-Glo kinase assay, JAK2; format: biochemical; conditions: 5 μM ATP, read-out: IC50 ± SEM JAK2
# T2 construct: purchased Sigma-Aldrich SRP0171
# T2 sequence (O60674 808-1132 limits assumed): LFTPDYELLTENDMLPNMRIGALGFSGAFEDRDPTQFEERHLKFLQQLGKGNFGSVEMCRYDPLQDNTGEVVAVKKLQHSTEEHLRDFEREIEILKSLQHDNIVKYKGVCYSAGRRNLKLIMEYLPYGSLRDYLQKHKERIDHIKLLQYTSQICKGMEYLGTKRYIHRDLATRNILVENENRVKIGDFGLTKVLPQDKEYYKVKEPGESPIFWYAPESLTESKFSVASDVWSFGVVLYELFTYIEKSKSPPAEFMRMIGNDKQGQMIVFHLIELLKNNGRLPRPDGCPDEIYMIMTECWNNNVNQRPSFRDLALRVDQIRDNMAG
# Method: as §2
# TF1 cells [3] = conditions: at IC50, 72 h, dot plot quadrant; remark: listed apart in the source
# Method: Subsequently, cells were harvested after being centrifuged at 1000 rpm for 5 min. The pellets were resuspended and incubated with 5 μL of caspase 3/7 reagent (MCH100108, Merk, Germany). Reactions were then incubated at 37 °C for 30 min and then mixed with 7-aminoactinomycin D (7-ADD). The number of apoptosis cells was analyzed by flow cytometry using the cell analyzer MUSE (Merck-MiIIipore, Burlington, MA, USA). All experiments were independently performed three times.
# HEL cell = conditions: read-out: IC50 HEL cell growth; cited from earlier work
# JAK1 = conditions: read-out: IC50 JAK1; cited from earlier work
smiles,measurement,setting,value
"O=C1C=CC(=O)c2c(O)cccc21 [Juglone, juglone]",IC50,"HEL cells; Presto Blue assay, mean ± SEM",8.67 ± 0.17 µM
CCC(=O)c1cc2c(o1)C(=O)c1ccccc1C2=O [2′-methyl napabucasin],Cytotoxicity screening on HEL cells,HEL cells; Presto Blue assay,highly potent cell growth inhibition
same,IC50,HEL cells,6.65 µM
same,"Dead cells, annexin V",TF1 cells [1],1.10%
same,"Early Apop. cells, annexin V",TF1 cells [1],25.42%
same,"Late Apop./Dead cells, annexin V",TF1 cells [1],51.16%
same,"Live cells, annexin V",TF1 cells [1],22.32%
same,Cytotoxicity against human keratinocytes,human keratinocytes,potent cytotoxicity
same,Cytotoxicity screening on TF1 cells,TF1 cells [2],highly potent cell growth inhibition
same,IC50,TF1 cells [2],18.1 µM
same,IC50,JAK3,10.2 ± 0.66 nM
same,IC50,JAK2,11.1 ± 0.13 nM
same,"Apoptotic cells, caspase 3/7",TF1 cells [3],13.50%
same,"Apoptotic/Dead cells, caspase 3/7",TF1 cells [3],22.35%
same,"Dead cells, caspase 3/7",TF1 cells [3],0.70%
same,"Live cells, caspase 3/7",TF1 cells [3],63.45%
"CC(=O)c1cc2c(o1)C(=O)c1ccccc1C2=O [Napabucasin, napabucasin]",Cytotoxicity screening on HEL cells,HEL cells; Presto Blue assay,highly potent cell growth inhibition
same,IC50,HEL cells,3.31 µM
same,"Dead cells, annexin V",TF1 cells [1],3.50%
same,"Early Apop. cells, annexin V",TF1 cells [1],29.80%
same,"Late Apop./Dead cells, annexin V",TF1 cells [1],39.24%
same,Cytotoxicity screening on TF1 cells,TF1 cells [2],highly potent cell growth inhibition
same,IC50,TF1 cells [2],9.57 µM
same,IC50,JAK3,14.8 ± 2.37 nM
same,IC50,JAK2,12.6 ± 2.12 nM
same,"Apoptotic cells, caspase 3/7",TF1 cells [3],25.85%
same,"Apoptotic/Dead cells, caspase 3/7",TF1 cells [3],18.10%
same,"Dead cells, caspase 3/7",TF1 cells [3],0.30%
same,"Live cells, caspase 3/7",TF1 cells [3],55.75%
"CC1=CC(=O)c2ccccc2C1=O [Menadione, menadione]",Cytotoxicity screening on HEL cells,HEL cells; Presto Blue assay,high cytotoxicity
same,IC50,"HEL cells; Presto Blue assay, mean ± SEM",7.99 ± 1.22 µM
N#Cc1ccc(C2C3=C(CCCC3=O)OC3=C2C(=O)c2ccccc2C3=O)cc1 (stereo not shown) [CM363],IC50,HEL cell,1300 nM
"O=C1C=C(O)C(=O)c2ccccc21 [Lawsone, 2-hydroxy-1,4-naphthoquinone]",Cytotoxicity screening on HEL cells,HEL cells; Presto Blue assay,inhibited the growth of both cell types poorly
same,Cytotoxicity screening on TF1 cells,TF1 cells [2],inhibited the growth of both cell types poorly
"N#CC[C@H](C1CCCC1)n1cc(-c2ncnc3[nH]ccc23)cn1 [Ruxolitinib, ruxolitinib, reference compound]",IC50,HEL cells,26.04 ± 0.26 µM
same,IC50,TF1 cells [2],12.2 ± 0.58 µM
